The NIST ThermoML archive (doi:10.1007/s10765-008-0503-0)
Numbers after ± are expanded uncertainties.

Details: Liquid; for viscosity: Vibrating wire viscometry; for mass density: vibrating wire

COCCOC [1,2-dimethoxyethane]
Details	mass density [kg/m3]	viscosity [mPa·s]
243.15 K, 100 kPa	919.667 ± 3.7	0.8856 ± 0.036
243.15 K, 4540 kPa	923.045 ± 3.7	0.9166 ± 0.037
243.15 K, 9560 kPa	926.586 ± 3.7	0.9502 ± 0.039
243.15 K, 14590 kPa	928.901 ± 3.7	0.9855 ± 0.04
243.15 K, 19470 kPa	931.879 ± 3.7	1.017 ± 0.041
253.15 K, 100 kPa	909.614 ± 3.6	0.7464 ± 0.031
253.15 K, 4550 kPa	912.595 ± 3.7	0.7729 ± 0.032
253.15 K, 9550 kPa	915.73 ± 3.7	0.7995 ± 0.033
253.15 K, 14450 kPa	917.844 ± 3.7	0.8296 ± 0.034
253.15 K, 19430 kPa	921.699 ± 3.7	0.858 ± 0.035
263.15 K, 100 kPa	899.206 ± 3.6	0.642 ± 0.026
263.15 K, 4560 kPa	901.757 ± 3.6	0.6618 ± 0.027
263.15 K, 9590 kPa	904.482 ± 3.6	0.6849 ± 0.028
263.15 K, 14590 kPa	908.179 ± 3.6	0.7095 ± 0.029
263.15 K, 19460 kPa	911.986 ± 3.6	0.7337 ± 0.03
273.15 K, 100 kPa	887.607 ± 3.6	0.5585 ± 0.023
273.15 K, 4560 kPa	890.738 ± 3.6	0.5759 ± 0.024
273.15 K, 9590 kPa	894.412 ± 3.6	0.5961 ± 0.025
273.15 K, 14550 kPa	898.792 ± 3.6	0.6173 ± 0.025
273.15 K, 19480 kPa	903.248 ± 3.6	0.6392 ± 0.026
283.15 K, 100 kPa	876.889 ± 3.5	0.4904 ± 0.02
283.15 K, 4550 kPa	880.455 ± 3.5	0.5056 ± 0.021
283.15 K, 9570 kPa	884.621 ± 3.5	0.525 ± 0.022
283.15 K, 14460 kPa	889.18 ± 3.6	0.5458 ± 0.023
283.15 K, 19450 kPa	892.89 ± 3.6	0.5619 ± 0.023
293.15 K, 100 kPa	866.528 ± 3.5	0.4341 ± 0.018
293.15 K, 4530 kPa	869.991 ± 3.5	0.4492 ± 0.019
293.15 K, 9560 kPa	875.037 ± 3.5	0.4673 ± 0.019
293.15 K, 14460 kPa	879.707 ± 3.5	0.485 ± 0.02
293.15 K, 19450 kPa	883.646 ± 3.5	0.5011 ± 0.021
303.15 K, 100 kPa	855.111 ± 3.4	0.3896 ± 0.016
303.15 K, 4540 kPa	859.667 ± 3.4	0.4031 ± 0.017
303.15 K, 9500 kPa	865.15 ± 3.5	0.4197 ± 0.017
303.15 K, 14440 kPa	869.454 ± 3.5	0.4334 ± 0.018
303.15 K, 19440 kPa	873.398 ± 3.5	0.4494 ± 0.019
313.15 K, 100 kPa	843.765 ± 3.4	0.3512 ± 0.015
313.15 K, 4540 kPa	848.633 ± 3.4	0.3641 ± 0.015
313.15 K, 9500 kPa	854.082 ± 3.4	0.3784 ± 0.016
313.15 K, 14440 kPa	858.578 ± 3.4	0.3922 ± 0.017
313.15 K, 19420 kPa	863.033 ± 3.5	0.4055 ± 0.017
323.15 K, 100 kPa	832.929 ± 3.3	0.3189 ± 0.014
323.15 K, 4560 kPa	838.334 ± 3.4	0.3303 ± 0.014
323.15 K, 9530 kPa	843.798 ± 3.4	0.3433 ± 0.015
323.15 K, 14450 kPa	848.464 ± 3.4	0.3562 ± 0.015
323.15 K, 19460 kPa	852.959 ± 3.4	0.3693 ± 0.016
333.15 K, 100 kPa	822.133 ± 3.3	0.2903 ± 0.013
333.15 K, 4550 kPa	827.195 ± 3.3	0.3018 ± 0.013
333.15 K, 9570 kPa	833.307 ± 3.3	0.3129 ± 0.013
333.15 K, 14460 kPa	837.525 ± 3.4	0.3256 ± 0.014
333.15 K, 19430 kPa	842.805 ± 3.4	0.3372 ± 0.014
343.15 K, 100 kPa	809.48 ± 3.2	0.2653 ± 0.011
343.15 K, 4540 kPa	815.487 ± 3.3	0.2754 ± 0.012
343.15 K, 9560 kPa	821.858 ± 3.3	0.2868 ± 0.012
343.15 K, 14440 kPa	827.359 ± 3.3	0.2985 ± 0.013
343.15 K, 19420 kPa	832.794 ± 3.3	0.3093 ± 0.013
353.15 K, 360 kPa	798.071 ± 3.2	0.2437 ± 0.011
353.15 K, 4560 kPa	803.982 ± 3.2	0.2539 ± 0.011
353.15 K, 9570 kPa	810.723 ± 3.2	0.2642 ± 0.011
353.15 K, 14440 kPa	817.205 ± 3.3	0.2754 ± 0.012
353.15 K, 19420 kPa	822.843 ± 3.3	0.2858 ± 0.012
363.15 K, 160 kPa	785.42 ± 3.1	0.2233 ± 0.0099
363.15 K, 4560 kPa	792.463 ± 3.2	0.233 ± 0.01
363.15 K, 9570 kPa	799.914 ± 3.2	0.2438 ± 0.011
363.15 K, 14440 kPa	806.21 ± 3.2	0.2557 ± 0.011
363.15 K, 19420 kPa	812.462 ± 3.3	0.2641 ± 0.011
373.15 K, 200 kPa	772.627 ± 3.1	0.2059 ± 0.0093
373.15 K, 4560 kPa	780.565 ± 3.1	0.2157 ± 0.0096
373.15 K, 9580 kPa	788.637 ± 3.2	0.2263 ± 0.01
373.15 K, 14440 kPa	795.752 ± 3.2	0.2355 ± 0.01
373.15 K, 19420 kPa	802.7 ± 3.2	0.2457 ± 0.011

COCOC [dimethoxymethane]
Details	mass density [kg/m3]	viscosity [mPa·s]
243.15 K, 100 kPa	917.773 ± 3.7	0.6298 ± 0.026
243.15 K, 4400 kPa	921.19 ± 3.7	0.651 ± 0.027
243.15 K, 9420 kPa	924.889 ± 3.7	0.6752 ± 0.028
243.15 K, 14450 kPa	928.455 ± 3.7	0.7003 ± 0.029
243.15 K, 19440 kPa	931.885 ± 3.7	0.7258 ± 0.03
253.15 K, 100 kPa	905.693 ± 3.6	0.5389 ± 0.022
253.15 K, 4420 kPa	909.439 ± 3.6	0.556 ± 0.023
253.15 K, 9410 kPa	913.399 ± 3.7	0.5769 ± 0.024
253.15 K, 14450 kPa	917.473 ± 3.7	0.5975 ± 0.025
253.15 K, 19440 kPa	921.171 ± 3.7	0.6191 ± 0.025
263.15 K, 100 kPa	893.705 ± 3.6	0.4697 ± 0.019
263.15 K, 4440 kPa	897.611 ± 3.6	0.4857 ± 0.02
263.15 K, 9440 kPa	901.958 ± 3.6	0.5039 ± 0.021
263.15 K, 14470 kPa	906.179 ± 3.6	0.5215 ± 0.022
263.15 K, 19470 kPa	910.144 ± 3.6	0.5406 ± 0.022
273.15 K, 100 kPa	881.433 ± 3.5	0.4145 ± 0.017
273.15 K, 4440 kPa	885.755 ± 3.5	0.4285 ± 0.018
273.15 K, 9440 kPa	890.38 ± 3.6	0.4446 ± 0.018
273.15 K, 14480 kPa	894.826 ± 3.6	0.4615 ± 0.019
273.15 K, 19540 kPa	899.081 ± 3.6	0.4783 ± 0.02
283.15 K, 100 kPa	869.282 ± 3.5	0.3685 ± 0.015
283.15 K, 4450 kPa	873.902 ± 3.5	0.3818 ± 0.016
283.15 K, 9430 kPa	878.977 ± 3.5	0.3964 ± 0.017
283.15 K, 14490 kPa	883.736 ± 3.5	0.4114 ± 0.017
283.15 K, 19550 kPa	888.33 ± 3.6	0.4265 ± 0.018
293.15 K, 100 kPa	857.043 ± 3.4	0.3303 ± 0.014
293.15 K, 4410 kPa	862.006 ± 3.4	0.342 ± 0.015
293.15 K, 9460 kPa	867.484 ± 3.5	0.3559 ± 0.015
293.15 K, 14490 kPa	872.625 ± 3.5	0.3692 ± 0.016
293.15 K, 19550 kPa	877.53 ± 3.5	0.3832 ± 0.016
303.15 K, 100 kPa	844.252 ± 3.4	0.2963 ± 0.013
303.15 K, 4450 kPa	849.702 ± 3.4	0.3076 ± 0.013
303.15 K, 9450 kPa	855.591 ± 3.4	0.3199 ± 0.014
303.15 K, 14490 kPa	861.24 ± 3.4	0.3323 ± 0.014
303.15 K, 19550 kPa	866.565 ± 3.5	0.345 ± 0.015
313.15 K, 160 kPa	831.685 ± 3.3	0.2682 ± 0.012
313.15 K, 4440 kPa	837.579 ± 3.4	0.2785 ± 0.012
313.15 K, 9420 kPa	843.933 ± 3.4	0.2905 ± 0.013
313.15 K, 14450 kPa	849.923 ± 3.4	0.3022 ± 0.013
313.15 K, 19440 kPa	855.5 ± 3.4	0.3137 ± 0.013
323.15 K, 190 kPa	818.682 ± 3.3	0.2436 ± 0.011
323.15 K, 4390 kPa	824.99 ± 3.3	0.2532 ± 0.011
323.15 K, 9420 kPa	832.095 ± 3.3	0.2644 ± 0.011
323.15 K, 14460 kPa	838.549 ± 3.4	0.2758 ± 0.012
323.15 K, 19490 kPa	844.585 ± 3.4	0.2866 ± 0.012
333.15 K, 210 kPa	805.334 ± 3.2	0.2202 ± 0.0098
333.15 K, 4390 kPa	812.279 ± 3.2	0.229 ± 0.01
333.15 K, 9410 kPa	819.852 ± 3.3	0.2401 ± 0.011
333.15 K, 14450 kPa	826.872 ± 3.3	0.2504 ± 0.011
333.15 K, 19450 kPa	833.322 ± 3.3	0.261 ± 0.011
343.15 K, 280 kPa	791.705 ± 3.2	0.2009 ± 0.0091
343.15 K, 4430 kPa	799.263 ± 3.2	0.2096 ± 0.0094
343.15 K, 9430 kPa	807.432 ± 3.2	0.2203 ± 0.0098
343.15 K, 14460 kPa	815.084 ± 3.3	0.2301 ± 0.01
343.15 K, 19460 kPa	822.037 ± 3.3	0.24 ± 0.011
353.15 K, 360 kPa	777.688 ± 3.1	0.1837 ± 0.0085
353.15 K, 4370 kPa	785.794 ± 3.1	0.1922 ± 0.0088
353.15 K, 9400 kPa	794.895 ± 3.2	0.2024 ± 0.0092
353.15 K, 14450 kPa	803.147 ± 3.2	0.2123 ± 0.0095
353.15 K, 19430 kPa	810.634 ± 3.2	0.2217 ± 0.0099
363.15 K, 430 kPa	763.12 ± 3.1	0.1688 ± 0.0079
363.15 K, 4400 kPa	772.066 ± 3.1	0.1767 ± 0.0082
363.15 K, 9410 kPa	782.127 ± 3.1	0.1868 ± 0.0086
363.15 K, 14450 kPa	791.118 ± 3.2	0.1963 ± 0.0089
363.15 K, 19460 kPa	799.153 ± 3.2	0.2059 ± 0.0093
373.15 K, 550 kPa	748.032 ± 3	0.1551 ± 0.0074
373.15 K, 4370 kPa	757.736 ± 3	0.1628 ± 0.0077
373.15 K, 9400 kPa	768.901 ± 3.1	0.1728 ± 0.0081
373.15 K, 14450 kPa	778.77 ± 3.1	0.1822 ± 0.0084
373.15 K, 19480 kPa	787.494 ± 3.2	0.1914 ± 0.0087
